Test system: outpatients with major depressive disorder
Assay: STAR*D trial: treatment-emergent suicidal ideation (TESI) by QIDS-SR16 item 12 during citalopram treatment
Assay type: in vivo, human
Conditions: citalopram typically starting at 20 mg/day, up to 14 weeks; comparison group n=1742; 53 participants missing data excluded
Text: DNA was collected from a clinically-representative cohort of 1938 outpatients with major depressive disorder enrolled in the Sequenced Treatment Alternatives to Relieve Depression (STAR*D) trial. Outpatients 18-75 years of age with a baseline 17-item Hamilton Depression Rating Scale (see Hamilton et al., J. Neurol. Neurosurg. Psychiatry, 23: 56-62 (1960); and Hamilton, Br. J. Soc. Clin. Psychol., 6(4): 278-296 (1967)) (HRSD17) score of ≧14 who met the Diagnostic and Statistical Manual of Mental Disorders (DSM)-IV criteria for non-psychotic major depressive disorder (MDD) were eligible for the trial. […]
The 16-item Quick Inventory of Depressive Symptomatology—Self-report (QIDS-SR16) was used as a measure of symptom severity (see Rush et al., Int. J. Methods Psychiatr. Res., 9: 45-59 (2000): Rush et al., Biol. Psychiatry, 54(5): 573-583 (2003); Trivedi et al., Psychol. Med., 34(1): 73-82 (2004); Rush et al., Neuropsychompharmacology, 30(2): 405-416 (2005); and Rush et al., Biol. Psychiatry, 59(6): 493-501 (2006)) and was obtained at baseline and at each bi-weekly clinic visit. […] Participants who scored “0” on this item before citalopram treatment, but who scored 1, 2, or 3 on the same item at least once while receiving citalopram were defined as TESI cases (n=120). […]

CN(C)CCCC1(c2ccc(F)cc2)OCc2cc(C#N)ccc21 (stereo not shown) [citalopram]
TESI cases (scored 0 on QIDS-SR16 item 12 before citalopram treatment, but 1, 2 or 3 at least once while receiving citalopram): 120 participants

— US7906283B2, “Methods to identify patients at risk of developing adverse events during treatment with antidepressant medication” (The United States of America as represented by the …, priority 2006, dated 2011)
